Converted amounts (≈) assume the structure as drawn. Like-named read-outs stand apart in the source and are kept apart here. Square brackets hold non-standard residues; d marks the D form. Peptide text beside a SMILES is read from it. dBip(4'-Cl) = N[C@H](Cc1ccc(-c2ccc(Cl)cc2)cc1)C(=O)O
Legend:
[1] = test system: Mupirocin-resistant MRSA ATCC-BAA-1556; assay: microbe, parasite or virus in culture; type: cell-based, Staphylococcus aureus
Method in brief: (§1)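 OD600 read-out after overnight shaking at 35° C. Cation-adjusted MH2 broth, inoculum ~1×10^6 CFU/mL, compounds 100–0.195 μM (2-fold, duplicates). MIC = lowest μM concentration with no growth, per CLSI microdilution.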

[2] = test system: Mupirocin-resistant MRSA ATCC-BAA-1708; assay: microbe, parasite or virus in culture; type: cell-based, Staphylococcus aureus; details: ATCC-BAA-1708; read-out: MIC
Method in brief: as §1

[3] = test system: Mupirocin-resistant MRSA ATCC-BAA-1750 (USA200); assay: microbe, parasite or virus in culture; type: cell-based, Staphylococcus aureus; details: ATCC-BAA-1750; read-out: MIC
Method in brief: as §1

[4] = test system: Mupirocin-susceptible MRSA ATCC-33592 (ST239); assay: microbe, parasite or virus in culture; type: cell-based, Staphylococcus aureus; details: ATCC-33592; read-out: MIC
Method in brief: as §1

[5] = test system: Mupirocin-susceptible MRSA ATCC-700699 (VISA); assay: microbe, parasite or virus in culture; type: cell-based, Staphylococcus aureus; details: ATCC-700699; read-out: MIC
Method in brief: as §1

[6] = test system: Mupirocin-susceptible MRSA ATCC-BAA-1681 (USA100); assay: microbe, parasite or virus in culture; type: cell-based, Staphylococcus aureus; details: ATCC-BAA-1681; read-out: MIC
Method in brief: as §1

[7] = test system: Mupirocin-susceptible MRSA ATCC-BAA-1707 (USA400); assay: microbe, parasite or virus in culture; type: cell-based, Staphylococcus aureus; details: ATCC-BAA-1707; read-out: MIC
Method in brief: as §1

[8] = test system: Mupirocin-susceptible MRSA ATCC-BAA-1754 (ST45); assay: microbe, parasite or virus in culture; type: cell-based, Staphylococcus aureus; details: ATCC-BAA-1754; read-out: MIC
Method in brief: as §1

[9] = test system: Mupirocin-susceptible MRSA ATCC-BAA-1756 (USA300); assay: microbe, parasite or virus in culture; type: cell-based, Staphylococcus aureus; details: ATCC-BAA-1756; read-out: MIC
Method in brief: as §1

[10] = test system: Mupirocin-susceptible MRSA ATCC-BAA-2762 (EMRSA15, ST22); assay: microbe, parasite or virus in culture; type: cell-based, Staphylococcus aureus; details: ATCC-BAA-2762; read-out: MIC
Method in brief: as §1

[11] = test system: Mupirocin-resistant MRSA (ATCC-BAA-1556); assay: Time-kill assay at 4xMIC (FIG. 1); type: cell-based, Staphylococcus aureus; details: 4×MIC
[12] = test system: Enterococcus faecalis ATCC 51299; assay: microbe, parasite or virus in culture; type: cell-based; details: ATCC 51299
Method: (§2) The antibacterial potency of Compound 34 was measured using the in vitro broth microdilution assay under assay conditions described by the Clinical and Laboratory Standards Institute. […] The test substance was dissolved in 100% DMSO (unless stated below), suspended completely by sonication or vortexing, diluted by 2-fold serial titrations in the same vehicle, for a total of 10 test concentrations (final concentrations: 100, 50, 25, 12.5, 6.25, 3.125, 1.56, 0.78, 0.39, 0.2 μM). A 4 μL aliquot of each dilution was added to 196 μL of broth medium seeded with the organism suspension in wells of a 96 well plate (bacterial count: 2-8×10^5 colony forming units/mL final). The final volume was 200 μL in each well and the final DMSO concentration was 2 percent. The incubation time is either 1 or 2 days at 36° C. All strains tested underwent aerobic respiration, except for ATCC BAA-1805 and ATCC 29399. Following incubation, the test plates were visually examined and wells were scored for growth or complete growth inhibition to define the minimum inhibitory concentration. Each test substance was evaluated in duplicate and the results below are the duplicate test values. Vehicle-control and an active reference agent were used as blank and positive controls, respectively.

[13] = test system: Enterococcus faecium ATCC BAA-2320; assay: microbe, parasite or virus in culture; type: cell-based; details: ATCC BAA-2320
Method: as §2

[14] = test system: Propionibacterium acnes ATCC 29399; assay: microbe, parasite or virus in culture; type: cell-based; details: ATCC 29399
Method: as §2

[15] = test system: S. aureus NARSA VRS1; assay: microbe, parasite or virus in culture; type: cell-based
Method: as §2, with “of 11” for “of 10”, “test concentrations.” for “test concentrations (final concentrations: 100, 50, 25, 12.5, 6.25, 3.125, 1.56, 0.78, 0.39, 0.2 μM).”, “was 2%.” for “was 2 percent.”, “is” for “is either”, “1 day” for “1 or 2 days”, “aerobic respiration.” for “aerobic respiration, except for ATCC BAA-1805 and ATCC 29399.”

Compound: N=C(N)NCCC[C@@H](NC(=O)[C@@H](Cc1ccc(-c2ccc(Cl)cc2)cc1)NC(=O)[C@@H](CCCNC(=N)N)NC(=O)[C@H](N)Cc1ccc(-c2ccc(Cl)cc2)cc1)C(N)=O [Compound 34] (H-[dBip(4'-Cl)][dR][dBip(4'-Cl)][dR]-NH2)
- MIC ([1]; Mupirocin-resistant MRSA ATCC-BAA-1556, cation-adjusted MH2 broth, overnight 35° C., OD600, read-out: MIC): 3.125 µM (≈ 2.64 µg/mL)
- improvement of bioactivity (lower MIC values) as compared to Compound 2 ([1]; against Mupirocin-resistant MRSA strains): about 4 fold
- MIC [2]: 1.56 µM (≈ 1.32 µg/mL)
- MIC [3]: 1.56 µM (≈ 1.32 µg/mL)
- MIC [4]: 3.125 µM (≈ 2.64 µg/mL)
- MIC [5]: 3.125 µM (≈ 2.64 µg/mL)
- MIC [6]: 3.125 µM (≈ 2.64 µg/mL)
- MIC [7]: 3.125 µM (≈ 2.64 µg/mL)
- MIC [8]: 3.125 µM (≈ 2.64 µg/mL)
- MIC [9]: 1.56 µM (≈ 1.32 µg/mL)
- MIC [10]: 3.125 µM (≈ 2.64 µg/mL)
- time-kill: rate of killing compared to Linezolid, Retapamulin and Vancomycin [11]: more rapidly as compared to Linezolid, Retapamulin and Vancomycin
- MIC [12]: 3.13 µM (≈ 2.64 µg/mL)
- MIC [13]: 1.56 µM (≈ 1.32 µg/mL)
- MIC [14]: 1.56 µM (≈ 1.32 µg/mL)
- MIC ([15]; NARSA VRS1, read-out: MIC): 2.37 µM
- MIC ([15]; S. aureus NARSA VRS1, CAMHB II): 2.0 µg/mL

— patent US20200157144A1, “ANTIMICROBIAL PEPTIDOMIMETICS” (priority 2017, published 2020)
